According to ChEMBL document CHEMBL1137009, “Inhibition of sphingosine-1-phosphate lyase for the treatment of autoimmune disorders” (J Med Chem, 2009):
pIC50: −log10 of the molar value. Activity calls are given as the source filed them. The rule behind the calls is not given here.

What was measured:
Mus musculus [1] = assay: Induction of lymphopenia in 129/SvEvBrd x C57BL/6 hybrid mouse assessed as reduction in lymphocyte level from peripheral circulation at 10 mg/kg by complete blood count analysis; format: functional; parameters: scale not given: the % may be the effect or the level left
[2] = (§1) Oral bioavailability in 129/SvEvBrd x C57BL/6 hybrid mouse at 1 mg/kg, iv and 10 mg/kg, po; format: ADME, organism-based; settings: 129/SvEvBrd x C57BL/6 hybrid, in vivo
[3] = (§2) AUC (0 to infinity) in 129/SvEvBrd x C57BL/6 hybrid mouse at 10 mg/kg, po; format: ADME, organism-based, Plasma; parameters: time infinity, dose 10 mg/kg, route oral; settings: 129/SvEvBrd x C57BL/6 hybrid, plasma
[4] = Clearance in 129/SvEvBrd x C57BL/6 hybrid mouse at 1 mg/kg, iv; format: ADME, organism-based; parameters: dose 1 mg/kg, route intravenous; settings: in vivo
Mus musculus [5] = assay: Induction of lymphopenia in 129/SvEvBrd x C57BL/6 hybrid mouse assessed as change in circulating lymphocyte level at 100 mg/kg, po administered as single dose after 18 hrs by complete blood count analysis relative to control; format: functional
[6] = Half life in 129/SvEvBrd x C57BL/6 hybrid mouse; format: ADME, organism-based; settings: in vivo
[7] = Permeability across human Caco-2 cell membrane at 20 uM; format: ADME, cell-based; settings: read-out: permeability
Mus musculus [8] = assay: Induction of lymphopenia in ip dosed 129/SvEvBrd x C57BL/6 hybrid mouse whole blood assessed as reduction in lymphocyte level by complete blood count analysis after 4 hrs; format: functional, organism-based
[9] = Cmax in 129/SvEvBrd x C57BL/6 hybrid mouse at 100 mg/kg, po; format: ADME, organism-based; parameters: dose 100 mg/kg, route oral; settings: in vivo
[10] = target: T1, Sphingosine-1-phosphate lyase 1 (Mus musculus) (UniProt Q8R0X7); assay: Inhibition of sphingosine-1-phosphate lyase in mouse spleen assessed as production of [33P]phosphoethanolamine; format: tissue-based
T1 sequence (whole entry): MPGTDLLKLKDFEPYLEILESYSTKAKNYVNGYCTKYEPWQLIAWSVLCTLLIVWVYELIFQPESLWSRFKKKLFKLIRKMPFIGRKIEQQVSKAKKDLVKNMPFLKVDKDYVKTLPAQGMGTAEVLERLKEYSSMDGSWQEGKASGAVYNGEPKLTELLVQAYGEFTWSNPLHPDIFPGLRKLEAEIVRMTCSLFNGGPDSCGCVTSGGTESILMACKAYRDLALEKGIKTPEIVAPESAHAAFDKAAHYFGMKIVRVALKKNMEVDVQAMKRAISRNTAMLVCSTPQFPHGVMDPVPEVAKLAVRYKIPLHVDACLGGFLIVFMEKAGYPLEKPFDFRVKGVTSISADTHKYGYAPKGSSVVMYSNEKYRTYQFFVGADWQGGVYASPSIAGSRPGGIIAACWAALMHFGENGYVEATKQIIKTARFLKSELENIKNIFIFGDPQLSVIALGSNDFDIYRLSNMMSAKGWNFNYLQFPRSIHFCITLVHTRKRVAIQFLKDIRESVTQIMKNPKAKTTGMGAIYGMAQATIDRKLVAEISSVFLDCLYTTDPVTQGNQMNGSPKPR

[11] = AUC in 129/SvEvBrd x C57BL/6 hybrid mouse at 100 mg/kg, po; format: ADME, organism-based; parameters: dose 100 mg/kg, route oral; settings: plasma
HepG2 = assay: Increase in sphingosine-1-phosphate level in human HepG2 cells relative to control; format: functional
Mus musculus [12] = assay: as §1; format: ADME, organism-based; settings: in vivo
Mus musculus [13] = assay: as §2; format: ADME, organism-based, Plasma; parameters: time infinity, dose 10 mg/kg, route oral; settings: in vivo
Mus musculus [14] = assay: Induction of lymphopenia in 129/SvEvBrd x C57BL/6 hybrid mouse assessed as change in circulating lymphocyte level at 30 mg/kg, po administered as single dose after 18 hrs by complete blood count analysis relative to control; format: functional
Mus musculus [15] = assay: Toxicity in 129/SvEvBrd x C57BL/6 hybrid mouse at 100 mg/kg, po; format: organism-based; parameters: dose 100 mg/kg, route oral; settings: in vivo
[16] = AUC in 129/SvEvBrd x C57BL/6 hybrid mouse at 10 mg/kg; format: ADME, organism-based; parameters: dose 10 mg/kg; settings: plasma
[17] = Bioavailability in 129/SvEvBrd x C57BL/6 hybrid mouse at 10 mg/kg; format: ADME, organism-based; settings: in vivo
Mus musculus [18] = assay: Induction of lymphopenia in 129/SvEvBrd x C57BL/6 hybrid mouse whole blood assessed as reduction in lymphocyte level at 100 mg/kg, po after 4 hrs by complete blood count analysis; format: functional, organism-based; parameters: dose 100 mg/kg
[19] = target: T2, Sphingosine-1-phosphate lyase 1 (Mus musculus, UniProt Q8R0X7); assay: Inhibition of sphingosine-1-phosphate lyase in mouse spleen by scintillation counting; format: tissue-based
T2 sequence (Q8R0X7 whole entry): T1 sequence (whole entry)

[20] = Protein binding in 129/SvEvBrd x C57BL/6 hybrid mouse plasma at 10 mg/kg; format: ADME, organism-based; parameters: dose 10 mg/kg; settings: read-out: PPB
[21] = Cmax in 129/SvEvBrd x C57BL/6 hybrid mouse at 10 mg/kg; format: ADME, organism-based; parameters: dose 10 mg/kg; settings: in vivo
Mus musculus [22] = assay: Induction of lymphopenia in 129/SvEvBrd x C57BL/6 hybrid mouse whole blood assessed as reduction in lymphocyte level at 100 mg/kg, po after 18 hrs by complete blood count analysis; format: functional, organism-based; parameters: dose 100 mg/kg

SMILES | bioavailability [2] [%] | AUC(0-inf) [3] [µM·h] | clearance [4] [mL/min/kg] | Activity (Mus musculus [5]) [%] | half-life [6] [h] | Papp at 20 µM [7] [×10⁻⁶ cm/s] | further results
CCCCCCCCc1ccc(CCC(N)(CO)CO)cc1 [FINGOLIMOD] | – | – | – | – | – | – | Activity (Mus musculus [1]): 90%
CC(=O)c1nc([C@H](O)[C@@H](O)[C@@H](O)CO)c[nH]1 | 17 | 18 | 6.7 | 0 | 6 | 13.1 | –
Cc1scnc1-c1nc([C@@H](O)[C@H](O)[C@H](O)CO)c[nH]1 | – | – | – | -7 | – | 4.9 | –
OC[C@@H](O)[C@@H](O)[C@H](O)c1c[nH]c(-c2ncon2)n1 | 5 | 3.2 | 11.3 | -16 | 0.7 | 14.1 | –
CCCCCCCCCCCC/C=C/C[C@@H](O)[C@H](CO)NCc1c(CO)cnc(C)c1O | – | – | – | – | – | – | Activity (Mus musculus [8]): Non-toxic; Cmax [9]: < 1 µM; Activity [10]: inactive; AUC [11]: < 1 µM·h; Activity (HepG2): 275%
OC[C@@H](O)[C@@H](O)[C@H](O)c1c[nH]c(-c2cnccn2)n1 | 10 | 4.7 | 13.4 | -6 | 1.9 | 19.8 | –
OC[C@@H](O)[C@@H](O)[C@H](O)c1c[nH]c(C(F)(F)C(F)(F)F)n1 | – | – | – | – | 1.7 | – | F (Mus musculus [12]): 31%; AUC (Mus musculus [13]): 10 µM·h; Activity (Mus musculus [14]): -11%
CC(=O)c1nc([C@@H](O)[C@H](O)[C@H](O)CO)c(-c2ccccc2)[nH]1 | 49.6 | 11.5 | 23.9 | 40 | 1.9 | 3.11 | –
CC(O)c1nc([C@@H](O)[C@H](O)[C@H](O)CO)c[nH]1 (stereo not given in full) | – | – | – | -15 | 4.4 | 4.1 | F (Mus musculus [12]): 22%; AUC (Mus musculus [13]): 44.5 µM·h
CC(=O)c1cccc([C@@H](O)[C@H](O)[C@H](O)CO)n1 | 88 | 43.4 | 14 | 45 | 2.1 | 13.4 | –
CC(F)(F)c1nc([C@@H](O)[C@H](O)[C@H](O)CO)c[nH]1 | – | 4.7 | – | – | 1 | 11.1 | Activity (Mus musculus [14]): -58%; Activity (Mus musculus [15]): Toxic
OC[C@@H](O)[C@@H](O)[C@H](O)c1c[nH]c(-c2cocn2)n1 | – | 3.4 | 16.6 | 1 | 1.2 | 0.9 | –
Nc1nc(N2CCCCC2)nc2c1c(=O)c(C(=O)NCc1ccc(-n3ccnc3)cc1)cn2CC1CCCO1 (stereo not given) | – | – | – | – | – | – | AUC [16]: 1870 µM·h; bioavailability [17]: 100%; Activity (Mus musculus [18]): Non-toxic; pIC50 [19]: 5.68; fraction unbound [20]: < 0.01; Cmax [21]: 451 µM; Activity (Mus musculus [22]): Non-toxic
CN(C)C(=O)c1nc([C@@H](O)[C@H](O)[C@H](O)CO)c[nH]1 | – | – | – | – | 4 | 9.9 | F (Mus musculus [12]): 5%; AUC (Mus musculus [13]): 6.7 µM·h; Activity (Mus musculus [14]): -11%
CCc1[nH]c(C(C)=O)nc1[C@@H](O)[C@H](O)[C@H](O)CO | 17.1 | 6.4 | 17.3 | 8 | 2.8 | 7.93 | –
